Measured values from patent US12479840B2, “HMG-CoA reductase degradation inducing compound” (Uppthera, priority 2020, dated 2025).

target: T1, HMG-CoA reductase (Homo sapiens, UniProt P04035); test: HMG-CoA reductase (HMGCR) degradation in HepG2 cells by western blotting; assay type: cell-based; details: treated for 18 hours, ratio of HMG-CoA reductase to GAPDH
T1 construct: endogenous in cells; host or cells: HepG2 (Korea Cell Line Bank)
T1 sequence (P04035 1-888): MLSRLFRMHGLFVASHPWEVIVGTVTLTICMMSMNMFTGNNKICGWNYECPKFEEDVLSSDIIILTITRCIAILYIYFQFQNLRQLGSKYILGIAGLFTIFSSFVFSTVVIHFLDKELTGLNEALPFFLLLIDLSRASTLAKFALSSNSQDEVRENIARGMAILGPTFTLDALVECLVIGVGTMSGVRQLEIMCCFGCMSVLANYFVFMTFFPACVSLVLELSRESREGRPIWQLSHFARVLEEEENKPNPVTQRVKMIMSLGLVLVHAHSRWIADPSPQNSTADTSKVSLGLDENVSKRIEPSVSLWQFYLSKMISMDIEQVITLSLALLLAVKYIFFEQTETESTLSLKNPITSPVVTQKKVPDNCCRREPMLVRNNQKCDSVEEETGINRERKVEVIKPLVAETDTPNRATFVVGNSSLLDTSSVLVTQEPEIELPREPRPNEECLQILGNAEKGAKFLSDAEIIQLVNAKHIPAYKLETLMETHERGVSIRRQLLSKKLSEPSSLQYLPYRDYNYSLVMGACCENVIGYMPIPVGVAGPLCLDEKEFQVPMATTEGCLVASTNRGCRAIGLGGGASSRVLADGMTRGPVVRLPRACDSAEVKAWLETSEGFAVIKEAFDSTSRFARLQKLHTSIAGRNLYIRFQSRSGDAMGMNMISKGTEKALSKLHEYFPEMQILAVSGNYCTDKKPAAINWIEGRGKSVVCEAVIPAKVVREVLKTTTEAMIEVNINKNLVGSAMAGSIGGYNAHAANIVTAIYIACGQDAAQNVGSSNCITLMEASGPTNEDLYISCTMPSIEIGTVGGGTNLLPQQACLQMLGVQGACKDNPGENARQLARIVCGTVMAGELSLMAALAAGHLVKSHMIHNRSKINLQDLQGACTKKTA
Method in brief: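 Western blot read-out: HMGCR protein probed (1:500, 16 hours at 4° C) alongside GAPDH loading control on 15 μg BCA-normalised RIPA lysates. Lysates came from HepG2 cells (P105–P110) exposed for 18 hours to a 10-point, three-fold series starting at 3 μM.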

Row | Compound | DC50
1 | Cc1ncsc1-c1ccc(CNC(=O)[C@@H]2C[C@@H](O)CN2C(=O)[C@@H](NC(=O)C2(F)CC2)C(C)(C)C)c(OCCOCCOCCNC(=O)O[C@H]2C[C@@H](C)C=C3C=C[C@H](C)[C@H](CC[C@@H]4C[C@@H](O[Si](C)(C)C(C)(C)C)CC(=O)O4)[C@H]32)c1 [Compound 28, (1S,3R,7S,8S,8aR)-8-(2-((2R,4R)-4-((tert-butyldimethylsilyl)oxy)-6-oxotetrahydro-2H-pyran-2-yl)ethyl)-3,7-dimethyl-1,2,3,7,8,8a-hexahydronaphthalen-1-yl (2-(2-(2-(2-(((2S,4R)-1-((S)-2-(1-fluorocyclopropane-1-carboxamido)-3,3-dimethylbutanoyl)-4-hydroxypyrrolidine-2-carboxamido)methyl)-5-(4-methylthiazol-5-yl)phenoxy)ethoxy)ethoxy)ethyl)carbamate] | < 50 nM
2 | Cc1ncsc1-c1ccc(CNC(=O)[C@@H]2C[C@@H](O)CN2C(=O)[C@@H](NC(=O)C2(F)CC2)C(C)(C)C)c(OCCOCCOCCOCCNC(=O)O[C@H]2C[C@@H](C)C=C3C=C[C@H](C)[C@H](CC[C@@H]4C[C@@H](O[Si](C)(C)C(C)(C)C)CC(=O)O4)[C@H]32)c1 [Compound 29, (1S,3R,7S,8S,8aR)-8-(2-((2R,4R)-4-((tert-butyldimethylsilyl)oxy)-6-oxotetrahydro-2H-pyran-2-yl)ethyl)-3,7-dimethyl-1,2,3,7,8,8a-hexahydronaphthalen-1-yl (2-(2-(2-(2-(2-(((2S,4R)-1-((S)-2-(1-fluorocyclopropane-1-carboxamido)-3,3-dimethylbutanoyl)-4-hydroxypyrrolidine-2-carboxamido)methyl)-5-(4-methylthiazol-5-yl)phenoxy)ethoxy)ethoxy)ethoxy)ethyl)carbamate] | 50 to 500 nM
3 | Cc1ncsc1-c1ccc(CNC(=O)[C@@H]2C[C@@H](O)CN2C(=O)[C@@H](NC(=O)C2(F)CC2)C(C)(C)C)c(OCCOCCOCCOCCOCCNC(=O)O[C@H]2C[C@@H](C)C=C3C=C[C@H](C)[C@H](CC[C@@H]4C[C@@H](O[Si](C)(C)C(C)(C)C)CC(=O)O4)[C@H]32)c1 [Compound 30, (1S,3R,7S,8S,8aR)-8-(2-((2R,4R)-4-((tert-butyldimethylsilyl)oxy)-6-oxotetrahydro-2H-pyran-2-yl)ethyl)-3,7-dimethyl-1,2,3,7,8,8a-hexahydronaphthalen-1-yl (14-(2-(((2S,4R)-1-((S)-2-(1-fluorocyclopropane-1-carboxamido)-3,3-dimethylbutanoyl)-4-hydroxypyrrolidine-2-carboxamido)methyl)-5-(4-methylthiazol-5-yl)phenoxy)-3,6,9,12-tetraoxatetradecyl)carbamate] | 50 to 500 nM

same assay, conditions: treated for 18 hours, ratio of HMG-CoA reductase to GAPDH, read-out: DC50

Row | Compound | DC50
4 | Cc1ncsc1-c1ccc(CNC(=O)[C@@H]2C[C@@H](O)CN2C(=O)[C@@H](NC(=O)C2(F)CC2)C(C)(C)C)c(OCCOCCOCCNC(=O)O[C@H]2C[C@@H](C)C=C3C=C[C@H](C)[C@H](CC[C@@H]4C[C@@H](O)CC(=O)O4)[C@H]32)c1 [Compound 24, (1S,3R,7S,8S,8aR)-8-(2-((2R,4R)-4-hydroxy-6-oxotetrahydro-2H-pyran-2-yl)ethyl)-3,7-dimethyl-1,2,3,7,8,8a-hexahydronaphthalen-1-yl (2-(2-(2-(2-(((2S,4R)-1-((S)-2-(1-fluorocyclopropane-1-carboxamido)-3,3-dimethylbutanoyl)-4-hydroxypyrrolidine-2-carboxamido)methyl)-5-(4-methylthiazol-5-yl)phenoxy)ethoxy)ethoxy)ethyl)carbamate] | < 50 nM
5 | Cc1ncsc1-c1ccc(CNC(=O)[C@@H]2C[C@@H](O)CN2C(=O)[C@@H](NC(=O)C2(F)CC2)C(C)(C)C)c(OCCOCCOCCOCCNC(=O)O[C@H]2C[C@@H](C)C=C3C=C[C@H](C)[C@H](CC[C@@H]4C[C@@H](O)CC(=O)O4)[C@H]32)c1 [Compound 25, (1S,3R,7S,8S,8aR)-8-(2-((2R,4R)-4-hydroxy-6-oxotetrahydro-2H-pyran-2-yl)ethyl)-3,7-dimethyl-1,2,3,7,8,8a-hexahydronaphthalen-1-yl (2-(2-(2-(2-(2-(((2S,4R)-1-((S)-2-(1-fluorocyclopropane-1-carboxamido)-3,3-dimethylbutanoyl)-4-hydroxypyrrolidine-2-carboxamido)methyl)-5-(4-methylthiazol-5-yl)phenoxy)ethoxy)ethoxy)ethoxy)ethyl)carbamate] | < 50 nM
6 | Cc1ncsc1-c1ccc(CNC(=O)[C@@H]2C[C@@H](O)CN2C(=O)[C@@H](NC(=O)C2(F)CC2)C(C)(C)C)c(OCCOCCOCCOCCOCCNC(=O)O[C@H]2C[C@@H](C)C=C3C=C[C@H](C)[C@H](CC[C@@H]4C[C@@H](O)CC(=O)O4)[C@H]32)c1 [Compound 26, (1S,3R,7S,8S,8aR)-8-(2-((2R,4R)-4-hydroxy-6-oxotetrahydro-2H-pyran-2-yl)ethyl)-3,7-dimethyl-1,2,3,7,8,8a-hexahydronaphthalen-1-yl (14-(2-(((2S,4R)-1-((S)-2-(1-fluorocyclopropane-1-carboxamido)-3,3-dimethylbutanoyl)-4-hydroxypyrrolidine-2-carboxamido)methyl)-5-(4-methylthiazol-5-yl)phenoxy)-3,6,9,12-tetraoxatetradecyl)carbamate] | < 50 nM
7 | Cc1ncsc1-c1ccc(CNC(=O)[C@@H]2C[C@@H](O)CN2C(=O)[C@@H](NC(=O)C2(F)CC2)C(C)(C)C)c(OCCOCCNC(=O)O[C@H]2C[C@@H](C)C=C3C=C[C@H](C)[C@H](CC[C@@H]4C[C@@H](O[Si](C)(C)C(C)(C)C)CC(=O)O4)[C@H]32)c1 [Compound 27, (1S,3R,7S,8S,8aR)-8-(2-((2R,4R)-4-((tert-butyldimethylsilyl)oxy)-6-oxotetrahydro-2H-pyran-2-yl)ethyl)-3,7-dimethyl-1,2,3,7,8,8a-hexahydronaphthalen-1-yl (2-(2-(2-(((2S,4R)-1-((S)-2-(1-fluorocyclopropane-1-carboxamido)-3,3-dimethylbutanoyl)-4-hydroxypyrrolidine-2-carboxamido)methyl)-5-(4-methylthiazol-5-yl)phenoxy)ethoxy)ethyl)carbamate] | < 50 nM
8 | CN[C@@H](C)C(=O)N[C@H](C(=O)N1CCC[C@H]1c1nc(C(=O)c2cccc(OCCOCCOCCNC(=O)O[C@H]3C[C@@H](C)C=C4C=C[C@H](C)[C@H](CC[C@@H]5C[C@@H](O)CC(=O)O5)[C@H]43)c2)cs1)C1CCCCC1 [Compound 31, (1S,3R,7S,8S,8aR)-8-(2-((2R,4R)-4-hydroxy-6-oxotetrahydro-2H-pyran-2-yl)ethyl)-3,7-dimethyl-1,2,3,7,8,8a-hexahydronaphthalen-1-yl (2-(2-(2-(3-(2-((S)-1-((S)-2-cyclohexyl-2-((S)-2-(methylamino)propanamido)acetyl)pyrrolidin-2-yl)thiazole-4-carbonyl)phenoxy)ethoxy)ethoxy)ethyl)carbamate] | < 50 nM
9 | CN[C@@H](C)C(=O)N[C@H](C(=O)N1CCC[C@H]1c1nc(C(=O)c2cccc(OCCOCCOCCOCCNC(=O)O[C@H]3C[C@@H](C)C=C4C=C[C@H](C)[C@H](CC[C@@H]5C[C@@H](O)CC(=O)O5)[C@H]43)c2)cs1)C1CCCCC1 [Compound 32, (1S,3R,7S,8S,8aR)-8-(2-((2R,4R)-4-hydroxy-6-oxotetrahydro-2H-pyran-2-yl)ethyl)-3,7-dimethyl-1,2,3,7,8,8a-hexahydronaphthalen-1-yl (2-(2-(2-(2-(3-(2-((S)-1-((S)-2-cyclohexyl-2-((S)-2-(methylamino)propanamido)acetyl)pyrrolidin-2-yl)thiazole-4-carbonyl)phenoxy)ethoxy)ethoxy)ethoxy)ethyl)carbamate] | < 50 nM
10 | CN[C@@H](C)C(=O)N[C@H](C(=O)N1CCC[C@H]1c1nc(C(=O)c2cccc(OCCOCCOCCOCCOCCNC(=O)O[C@H]3C[C@@H](C)C=C4C=C[C@H](C)[C@H](CC[C@@H]5C[C@@H](O)CC(=O)O5)[C@H]43)c2)cs1)C1CCCCC1 [Compound 33, (1S,3R,7S,8S,8aR)-8-(2-((2R,4R)-4-hydroxy-6-oxotetrahydro-2H-pyran-2-yl)ethyl)-3,7-dimethyl-1,2,3,7,8,8a-hexahydronaphthalen-1-yl (14-(3-(2-((S)-1-((S)-2-cyclohexyl-2-((S)-2-(methylamino)propanamido)acetyl)pyrrolidin-2-yl)thiazole-4-carbonyl)phenoxy)-3,6,9,12-tetraoxatetradecyl)carbamate] | < 50 nM
